Reference: US20240116985A1, “STAPLED PEPTIDES AND METHODS THEREOF” (priority 2020, published 2024)
In brackets after ≈: the same amount, converted by molar mass. Where two headings read alike, the source gives them in different places.

What was measured:
[1] = CHI Log D procedure; type: physicochemical; settings: for CHI Log D: pH 7.4; for chromatographic logD: pH 7.4, CHI Log D
[2] = Solubility in PBS; type: physicochemical
Outline: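 Read-out is the HPLC peak area of the supernatant from ultracentrifuged PBS solution, scaled against a 50 μM peptide DMSO injection; value reported as [(PBS area)/(DMSO area)]*50 uM.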

[3] = molecular target: T1, full-length beta-Catenin (Uniprot ID P35222) (Homo sapiens, UniProt P35222); assay: Fluorescence polarization IC50 (beta-catenin / 5FAM-TCF4 10-53 competition); type: binding
T1 construct: 10 nM full-length beta-Catenin (Uniprot ID P35222)
T1 sequence (P35222 1-781): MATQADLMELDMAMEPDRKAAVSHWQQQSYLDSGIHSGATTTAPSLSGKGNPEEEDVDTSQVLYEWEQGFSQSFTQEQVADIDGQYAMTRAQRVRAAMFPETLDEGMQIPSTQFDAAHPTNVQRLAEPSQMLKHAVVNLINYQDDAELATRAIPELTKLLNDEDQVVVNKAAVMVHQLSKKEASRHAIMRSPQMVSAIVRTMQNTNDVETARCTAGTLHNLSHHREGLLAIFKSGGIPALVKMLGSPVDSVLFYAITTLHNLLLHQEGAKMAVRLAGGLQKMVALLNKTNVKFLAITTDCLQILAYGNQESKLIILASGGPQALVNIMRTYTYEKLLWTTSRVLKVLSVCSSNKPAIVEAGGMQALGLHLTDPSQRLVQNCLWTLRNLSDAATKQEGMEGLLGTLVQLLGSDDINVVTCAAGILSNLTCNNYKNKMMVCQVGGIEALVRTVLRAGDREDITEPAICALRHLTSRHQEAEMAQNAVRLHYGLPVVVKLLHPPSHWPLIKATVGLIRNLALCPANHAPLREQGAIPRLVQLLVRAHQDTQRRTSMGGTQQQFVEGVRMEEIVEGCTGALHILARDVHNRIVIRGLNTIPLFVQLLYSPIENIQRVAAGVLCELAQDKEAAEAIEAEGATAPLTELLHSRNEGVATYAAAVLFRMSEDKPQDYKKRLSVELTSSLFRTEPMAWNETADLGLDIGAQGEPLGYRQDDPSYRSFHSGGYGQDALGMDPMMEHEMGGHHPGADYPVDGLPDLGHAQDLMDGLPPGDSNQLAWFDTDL

[4] = fluorescence polarization, read-out: beta-Catenin FP IC50

Row | CHI Log D [1] | Solubility [2] [µM] | IC50 [3, 4] [nM] | IC50 ([3]; read-out: FP EC50) [nM] | chromatographic logD [1] | Solubility ([2]; Solubility (uM)) [µM] | SMILES
1 | 2.49 | 44 (≈ 81.1 µg/mL) | 109 | 109 |  |  | CC[C@H](C)[C@@H]1NC(=O)[C@H](CC(=O)O)NC(=O)[C@]2(CC=CCCCC3(CCCC=CCCCCCC[C@@](C)(C(=O)N[C@@H](Cc4ccccc4)C(=O)N[C@@H](Cc4csc5ccccc45)C(=O)N[C@@H](CO)C(N)=O)NC(=O)[C@H](CCC(N)=O)NC(=O)[C@H](Cc4ccccc4)NC(=O)[C@H](C)NC(=O)[C@H](C)NC(=O)[C@H](CCC(=O)O)NC(=O)[C@H](CC(=O)O)NC3=O)NC1=O)CCCN2C(C)=O (stereo partly drawn) [I-639, Ac-PL3-Asp-Ile-B5-Asp-Glu-Ala-Ala-Phe-Gln-S8-Phe-BztA-Ser-NH2]
2 | 2.516 | 50 (≈ 92.1 µg/mL) | 87 | 87 |  |  | CC[C@H](C)[C@@H]1NC(=O)[C@H](CC(=O)O)NC(=O)[C@]2(CC=CCCCC3(CCCC=CCCCCCC[C@@](C)(C(=O)N[C@@H](Cc4ccccc4)C(=O)N[C@@H](Cc4csc5ccccc45)C(=O)N[C@@H](CO)C(N)=O)NC(=O)[C@H](CCC(N)=O)NC(=O)[C@H](Cc4ccccc4)NC(=O)[C@H](C)NC(=O)[C@H](C)NC(=O)[C@H](CCC(=O)O)NC(=O)[C@H](CC(=O)O)NC3=O)NC1=O)CCCN2C(C)=O (stereo partly drawn) [I-640, Ac-PL3-Asp-Ile-B5-Asp-Glu-Ala-Ala-Phe-Gln-S8-Phe-BztA-Ser-NH2]
3 | 2.497 | 43 (≈ 79.8 µg/mL) | 122 | 122 |  |  | CC[C@H](C)[C@@H]1NC(=O)[C@H](CC(=O)O)NC(=O)[C@]2(CC=CCCCC3(CCCC=CCCCCCC[C@@](C)(C(=O)N[C@@H](Cc4ccccc4)C(=O)N[C@@H](Cc4csc5ccccc45)C(=O)N[C@H](C(N)=O)[C@@H](C)O)NC(=O)[C@H](CCC(N)=O)NC(=O)[C@H](Cc4ccccc4)NC(=O)[C@H](C)NC(=O)[C@H](C)NC(=O)[C@H](CCC(=O)O)NC(=O)[C@H](CC(=O)O)NC3=O)NC1=O)CCCN2C(C)=O (stereo partly drawn) [I-641, Ac-PL3-Asp-Ile-B5-Asp-Glu-Ala-Ala-Phe-Gln-S8-Phe-BztA-Thr-NH2]
4 | 2.512 | 48 (≈ 89.1 µg/mL) | 118 | 118 |  |  | CC[C@H](C)[C@@H]1NC(=O)[C@H](CC(=O)O)NC(=O)[C@]2(CC=CCCCC3(CCCC=CCCCCCC[C@@](C)(C(=O)N[C@@H](Cc4ccccc4)C(=O)N[C@@H](Cc4csc5ccccc45)C(=O)N[C@H](C(N)=O)[C@@H](C)O)NC(=O)[C@H](CCC(N)=O)NC(=O)[C@H](Cc4ccccc4)NC(=O)[C@H](C)NC(=O)[C@H](C)NC(=O)[C@H](CCC(=O)O)NC(=O)[C@H](CC(=O)O)NC3=O)NC1=O)CCCN2C(C)=O (stereo partly drawn) [I-642, Ac-PL3-Asp-Ile-B5-Asp-Glu-Ala-Ala-Phe-Gln-S8-Phe-BztA-Thr-NH2]
5 | 2.833 | 28 (≈ 54.4 µg/mL) | 958 | 958 |  |  | CC[C@H](C)[C@@H]1NC(=O)[C@H](CC(=O)O)NC(=O)[C@]2(CC=CCCCC3(CCCC=CCCCCCC[C@@](C)(C(=O)N[C@@H](Cc4ccccc4)C(=O)N[C@@H](Cc4csc5ccccc45)C(=O)N[C@@H](Cc4c[nH]c5ccccc45)C(N)=O)NC(=O)[C@H](CCC(N)=O)NC(=O)[C@H](Cc4ccccc4)NC(=O)[C@H](C)NC(=O)[C@H](C)NC(=O)[C@H](CCC(=O)O)NC(=O)[C@H](CC(=O)O)NC3=O)NC1=O)CCCN2C(C)=O (stereo partly drawn) [I-643, Ac-PL3-Asp-Ile-B5-Asp-Glu-Ala-Ala-Phe-Gln-S8-Phe-BztA-Trp-NH2]

Second part, the molecule before the results:

Row | SMILES | CHI Log D [1] | Solubility [2] [µM] | IC50 [3, 4] [nM] | IC50 ([3]; read-out: FP EC50) [nM] | chromatographic logD [1] | Solubility ([2]; Solubility (uM)) [µM]
6 | CC(=O)N1CCC[C@]12CC=CCCCC1(CCCC=CCCCCCC[C@@](C)(C(=O)N[C@@H](Cc3ccccc3)C(=O)N[C@@H](Cc3csc4ccccc34)C(N)=O)NC(=O)[C@H](CCCNC(N)=O)NC(=O)[C@H](Cc3ccccc3)NC(=O)[C@H](C)NC(=O)[C@H](C)NC(=O)[C@H](CCC(=O)O)NC(=O)[C@H](CC(=O)O)NC1=O)NC(=O)[C@H](CC(C)C)NC(=O)[C@H](CC(=O)O)NC2=O (stereo partly drawn) [I-628, Ac-PL3-Asp-Leu-B5-Asp-Glu-Ala-Ala-Phe-Cit-S8-Phe-BztA-NH2] | 3.103 | 47 (≈ 83.9 µg/mL) | 60 | 713 |  | 
7 | CC[C@H](C)[C@@H]1NC(=O)[C@H](CC(=O)O)NC(=O)[C@]2(CC=CCCCC3(CCCC=CCCCCCC[C@@](C)(C(=O)N[C@@H](Cc4ccccc4)C(=O)N[C@@H](Cc4csc5ccccc45)C(=O)N[C@@H](CCCNC(=N)N)C(N)=O)NC(=O)[C@H](CCC(N)=O)NC(=O)[C@H](Cc4ccccc4)NC(=O)[C@H](C)NC(=O)[C@H](C)NC(=O)[C@H](CCC(=O)O)NC(=O)[C@H](CC(=O)O)NC3=O)NC1=O)CCCN2C(C)=O (stereo partly drawn) [I-633, Ac-PL3-Asp-Ile-B5-Asp-Glu-Ala-Ala-Phe-Gln-S8-Phe-BztA-Arg-NH2] |  | 10 (≈ 19.1 µg/mL) | 88 |  | 2.62 | 
8 | CC[C@H](C)[C@@H]1NC(=O)[C@H](CC(=O)O)NC(=O)[C@]2(CC=CCCCC3(CCCC=CCCCCCC[C@@](C)(C(=O)N[C@@H](Cc4ccccc4)C(=O)N[C@@H](Cc4csc5ccccc45)C(=O)N[C@@H](CC(C)C)C(N)=O)NC(=O)[C@H](CCC(N)=O)NC(=O)[C@H](Cc4ccccc4)NC(=O)[C@H](C)NC(=O)[C@H](C)NC(=O)[C@H](CCC(=O)O)NC(=O)[C@H](CC(=O)O)NC3=O)NC1=O)CCCN2C(C)=O (stereo partly drawn) [I-634, Ac-PL3-Asp-Ile-B5-Asp-Glu-Ala-Ala-Phe-Gln-S8-Phe-BztA-Leu-NH2] |  |  | 425 |  | 2.76 | 49 (≈ 91.5 µg/mL)
9 | CC[C@H](C)[C@@H]1NC(=O)[C@H](CC(=O)O)NC(=O)[C@]2(CC=CCCCC3(CCCC=CCCCCCC[C@@](C)(C(=O)N[C@@H](Cc4ccccc4)C(=O)N[C@@H](Cc4csc5ccccc45)C(=O)N[C@@H](Cc4ccccc4)C(N)=O)NC(=O)[C@H](CCC(N)=O)NC(=O)[C@H](Cc4ccccc4)NC(=O)[C@H](C)NC(=O)[C@H](C)NC(=O)[C@H](CCC(=O)O)NC(=O)[C@H](CC(=O)O)NC3=O)NC1=O)CCCN2C(C)=O (stereo partly drawn) [I-635, Ac-PL3-Asp-Ile-B5-Asp-Glu-Ala-Ala-Phe-Gln-S8-Phe-BztA-Phe-NH2] |  |  | 171 |  | 2.73 | 43 (≈ 81.8 µg/mL)
10 | CC[C@H](C)[C@@H]1NC(=O)[C@H](CC(=O)O)NC(=O)[C@]2(CC=CCCCC3(CCCC=CCCCCCC[C@@](C)(C(=O)N[C@@H](Cc4ccccc4)C(=O)N[C@@H](Cc4csc5ccccc45)C(=O)N[C@@H](Cc4ccc(O)cc4)C(N)=O)NC(=O)[C@H](CCC(N)=O)NC(=O)[C@H](Cc4ccccc4)NC(=O)[C@H](C)NC(=O)[C@H](C)NC(=O)[C@H](CCC(=O)O)NC(=O)[C@H](CC(=O)O)NC3=O)NC1=O)CCCN2C(C)=O (stereo partly drawn) [I-636, Ac-PL3-Asp-Ile-B5-Asp-Glu-Ala-Ala-Phe-Gln-S8-Phe-BztA-Tyr-NH2] |  | 50 (≈ 95.9 µg/mL) | 198 |  | 2.57 | 
11 | CC[C@H](C)[C@@H]1NC(=O)[C@H](CC(=O)O)NC(=O)[C@]2(CC=CCCCC3(CCCC=CCCCCCC[C@@](C)(C(=O)N[C@@H](Cc4ccccc4)C(=O)N[C@@H](Cc4csc5ccccc45)C(=O)N4CCC[C@H]4C(N)=O)NC(=O)[C@H](CCC(N)=O)NC(=O)[C@H](Cc4ccccc4)NC(=O)[C@H](C)NC(=O)[C@H](C)NC(=O)[C@H](CCC(=O)O)NC(=O)[C@H](CC(=O)O)NC3=O)NC1=O)CCCN2C(C)=O (stereo partly drawn) [I-638, Ac-PL3-Asp-Ile-B5-Asp-Glu-Ala-Ala-Phe-Gln-S8-Phe-BztA-Pro-NH2] | 2.622 | 48 (≈ 88.9 µg/mL) | 3880 | 3880 |  | 
